{
  "source": "paper PMC6434714",
  "about": "(Journal of natural products, 2018)",
  "key": {"[1]": {"target": "A. aeolicus MraY (AaMraY) (Aquifex aeolicus, UniProt O66465)", "sequence (O66465 whole entry)": "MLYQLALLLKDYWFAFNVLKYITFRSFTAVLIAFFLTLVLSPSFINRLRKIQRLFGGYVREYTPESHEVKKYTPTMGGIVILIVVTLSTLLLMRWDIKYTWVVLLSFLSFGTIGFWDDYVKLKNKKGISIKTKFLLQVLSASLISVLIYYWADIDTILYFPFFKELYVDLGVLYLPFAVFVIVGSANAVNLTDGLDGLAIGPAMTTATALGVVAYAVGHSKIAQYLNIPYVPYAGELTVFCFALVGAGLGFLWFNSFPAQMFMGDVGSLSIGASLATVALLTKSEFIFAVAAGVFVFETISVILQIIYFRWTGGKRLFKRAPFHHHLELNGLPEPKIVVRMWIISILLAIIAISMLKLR", "test": "Fluorescence-based in vitro MraY assay, A. aeolicus MraY", "assay_type": "biochemical"}, "[2]": {"test_system": "S. aureus subsp. aureus (Newman strain)", "test": "Antimicrobial activity", "conditions": "for activity against S. aureus (in words): growth inhibition"}, "Staphylococcal": {"test_system": "Staphylococcal", "conditions": "cited from earlier work"}, "E. coli imp mutant": {"test_system": "E. coli imp mutant", "conditions": "cited from earlier work"}, "S. aureus": {"test_system": "S. aureus", "conditions": "cited from earlier work"}},
  "data": [
    {"smiles": "CO[C@H]1[C@H](O[C@H]([C@H]2O[C@@H](n3ccc(=O)[nH]c3=O)[C@H](O)[C@@H]2O)[C@H](NCCCNC(=O)[C@@H](NC(=O)[C@@H](NC(=O)N[C@H](C(=O)O)C(C)C)[C@@H]2CCNC(=N)N2)[C@@H](OC(=O)CCCCCCCCCCCCC(C)C)C(C)C)C(=O)O)O[C@H](CN)[C@H]1O", "note": "[Compound 1, muraymycin B8]", "values": [
      {"measurement": "IC50", "setting": "[1]", "result": 0.068, "unit": "nM"},
      {"measurement": "MIC", "setting": "[2]; Staphylococcus aureus, NEWMAN, 16 h, read-out: S. aureus growth inhibition MIC, Newman strain, 37 °C, 16 h", "result": "2 to 6", "unit": "µg/mL"}
    ]},
    {"smiles": "CO[C@H]1[C@H](O[C@H]([C@H]2O[C@@H](n3ccc(=O)[nH]c3=O)[C@H](O)[C@@H]2O)[C@H](NCCCNC(=O)[C@@H](NC(=O)[C@@H](NC(=O)N[C@H](C(=O)O)C(C)C)[C@@H]2CCNC(=N)N2)[C@@H](OC(=O)CCCCCCCCCCC(C)C)C(C)C)C(=O)O)O[C@H](CN)[C@H]1O", "note": "[Compound 2, muraymycin B9]", "values": [
      {"measurement": "S. aureus growth inhibition MIC", "setting": "[2]; Newman strain, 37 °C, 16 h", "result": "2 to 6", "unit": "µg/mL"}
    ]},
    {"smiles": "CO[C@H]1[C@H](O[C@H]([C@H]2O[C@@H](n3ccc(=O)[nH]c3=O)[C@H](O)[C@@H]2O)[C@H](NCCCNC(=O)[C@@H](NC(=O)[C@@H](NC(=O)N[C@H](C(=O)O)C(C)C)[C@@H]2CCNC(=N)N2)[C@@H](O)C(C)C)C(=O)O)O[C@H](CNC(C)=O)[C@H]1O", "note": "[Compound 3, 16-N-acetyl-muraymycin C1]", "values": [
      {"measurement": "activity against S. aureus (in words)", "setting": "[2]", "result": "inactive"}
    ]},
    {"smiles": "CO[C@H]1[C@H](O[C@H]([C@H]2O[C@@H](n3ccc(=O)[nH]c3=O)[C@H](O)[C@@H]2O)[C@H](NCCCNC(=O)[C@@H](NC(=O)[C@@H](NC(=O)N[C@H](C(=O)O)C(C)C)[C@@H]2CCNC(=N)N2)[C@@H](OC(=O)CCCCCCCCCCCCN(O)C(=N)N)C(C)C)C(=O)O)O[C@H](CN)[C@H]1O", "note": "[Muraymycin A1]", "values": [
      {"measurement": "MIC against Staphylococcal", "setting": "Staphylococcal", "result": "2 to 16", "unit": "µg/mL"},
      {"measurement": "MIC against E. coli imp mutant", "setting": "E. coli imp mutant", "result": "< 0.03", "unit": "µg/mL"}
    ]},
    {"smiles": "CO[C@H]1[C@H](O[C@H]([C@H]2O[C@@H](n3ccc(=O)[nH]c3=O)[C@H](O)[C@@H]2O)[C@H](NCCCNC(=O)[C@@H](NC(=O)[C@@H](NC(=O)N[C@H](C(=O)O)C(C)C)[C@@H]2CCN=C(N)N2)[C@@H](OC(=O)CCCCCCC(C)C)C(C)C)C(=O)O)O[C@H](CN)[C@H]1O", "note": "[muraymycin B2]", "values": [
      {"measurement": "MIC against S. aureus", "setting": "S. aureus", "result": "> 32", "unit": "µg/mL"}
    ]},
    {"smiles": "CO[C@H]1[C@H](O[C@H]([C@H]2O[C@@H](n3ccc(=O)[nH]c3=O)[C@H](O)[C@@H]2O)[C@H](NCCCNC(=O)[C@@H](NC(=O)[C@@H](NC(=O)N[C@H](C(=O)O)C(C)C)[C@@H]2CCN=C(N)N2)[C@@H](OC(=O)CCCCC(C)C)C(C)C)C(=O)O)O[C@H](CN)[C@H]1O", "note": "[muraymycin B6]", "values": [
      {"measurement": "MIC against S. aureus", "setting": "S. aureus", "result": "> 32", "unit": "µg/mL"}
    ]},
    {"smiles": "CO[C@H]1[C@H](O[C@H]([C@H]2O[C@@H](n3ccc(=O)[nH]c3=O)[C@H](O)[C@@H]2O)[C@H](NCCCNC(=O)[C@@H](NC(=O)[C@@H](NC(=O)N[C@H](C(=O)O)C(C)C)[C@@H]2CCNC(=N)N2)[C@@H](O)C(C)C)C(=O)O)O[C@H](CN)[C@H]1O", "note": "[muraymycin C1]", "values": [
      {"measurement": "activity against S. aureus (in words)", "setting": "[2]", "result": "inactive"}
    ]}
  ]
}
